Results on nine compounds are retold here after the supplement of paper PMC4862054.

In test [1] the test system is BT-474. To be noted: 72 h. The method in brief:
(§1)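 Breast cancer cell lines in 20 µl suspension were added to 384-well plates already holding compound at 5 concentrations, spaced in 10-fold steps across a compound-specific 10,000-fold range, and incubated for 72 h. CellTox Green fluorescence (485/520 nm) was read first to measure cell death, followed by CellTiter-Glo luminescence for viability after 10 min at room temperature. Each plate was normalised to 0.1 % DMSO and a positive kill control. EC50 values came from dose-response curve fits and were censored at the top concentration.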

For test [2], the system named is BT-549. Conditions: 72 h. The method in brief:
as §1

Test [3] deals with MDA-MB-468. Conditions: 72 h. A digest of the protocol: as §1
In test [4] the test system is MCF-10A. To be noted: 72 h. The method in brief: as §1
Test [5] deals with CAL-120. To be noted: 72 h. A digest of the protocol: as §1
Test [6] relates to SK-BR-3. To be noted: 72 h. The method in brief:
as §1

Test [7] has as its system MFM-223. Conditions: 72 h. A digest of the protocol: as §1
In test [8] the test system is MDA-MB-453. To be noted: 72 h. A digest of the protocol:
as §1

For test [9], the system named is CAL-51. To be noted: 72 h. The method in brief:
as §1

The test system of test [10] is MDA-MB-436. Conditions: 72 h. The method in brief: as §1
Test [11] concerns CAL-51. To be noted: 72 h. As for the experimental part: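 Drug sensitivity and resistance testing (DSRT) of breast cancer cell lines in 384-well plates, 5 concentrations in 10-fold dilutions over a compound-specific 10,000-fold range. After 72 h, cytotoxicity was read by CellTox Green fluorescence and viability by CellTiter-Glo luminescence (multiplexed), normalised to DMSO and benzethonium chloride controls. EC50 is the inflection point of the fitted dose-response curve (bottom asymptote free, so it can be relative for partial curves) and is censored at the highest tested concentration. Rows with DSS 0 (no meaningful response) were excluded.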
This is another data set of the same source.

Test [12] deals with BT-474. As to the kind of experiment: normalised response (% of control), CellTiter-Glo; higher = more viable cells (100 = DMSO, 0 = benzethonium chloride kill control). To be noted: incubation time: 72 h. A digest of the protocol: (§2)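 Plates were normalised with 0.1 % DMSO as 100 and a positive kill control as 0. Breast cancer cell lines in 20 µl suspension had been seeded into 384-well plates with compound at 5 concentrations in 10-fold steps over a compound-specific 10,000-fold range, incubated 72 h, and read for CellTox Green fluorescence (485/520 nm) followed by CellTiter-Glo luminescence. Each value is the normalised signal at a single concentration.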

The test system of test [13] is BT-549. The description is as above. Conditions: incubation time: 72 h. The method in brief: as §2
The test system of test [14] is MDA-MB-468. Described as above. To be noted: incubation time: 72 h. The method in brief:
as §2

Test [15] concerns HCC1143. Described as above. Conditions: incubation time: 72 h. A digest of the protocol: as §2
The subject of test [16] is Hs578T. The description is as above. To be noted: incubation time: 72 h. A digest of the protocol:
as §2

In test [17] the test system is HDQ-P1. Described as above. To be noted: incubation time: 72 h. The method in brief:
as §2

Test [18] deals with CAL-85-1. Described as above. To be noted: incubation time: 72 h. The method in brief: as §2
Test [19] concerns CAL-120. The description is as above. To be noted: incubation time: 72 h. The method in brief: as §2
The subject of test [20] is CAL-51. The test is described as above. To be noted: incubation time: 72 h. The method in brief:
as §2

Test [21] concerns SK-BR-3. The test is described as above. To be noted: incubation time: 72 h. The method in brief:
as §2

Test [22] concerns HCC1937. The test is described as above. To be noted: incubation time: 72 h. A digest of the protocol:
as §2

Test [23] deals with MFM-223. The test is described as above. Conditions: incubation time: 72 h. The method in brief: as §2
For test [24], the system named is DU-4475. Described as above. Conditions: incubation time: 72 h. A digest of the protocol: as §2
The test system of test [25] is MDA-MB-436. The test is described as above. To be noted: incubation time: 72 h. The method in brief: as §2
In test [26] the test system is MDA-MB-453. Described as above. Conditions: incubation time: 72 h. A digest of the protocol:
as §2

Test [27] relates to MDA-MB-231. The description is as above. To be noted: incubation time: 72 h. A digest of the protocol: as §2
Test [28] concerns HCC1599. Described as above. Conditions: incubation time: 72 h. A digest of the protocol: as §2

SMILES strings stand for the structures.

For `CC(C)(C)Cn1c(N)nc2ccc(-c3[nH]c(C(C)(C)C)nc3-c3ccc(F)cc3)nc21`, the “EC50, CellTiter-Glo” value was above 10 µM in [1]; 3.34 µM in [2]; 6.76 µM in test [3]; 4.59 µM in [4]; above 10 µM in test [5]; 3.05 µM in [6]. The figures for the “EC50, CellTiter-Glo” value in test [7] and in test [8] were 3.11 µM and 1.91 µM, respectively.
For the compound `Cc1cc2c(F)c(Oc3ncnn4cc(OC[C@@H](C)O)c(C)c34)ccc2[nH]1` [Brivanib], in [9], the “EC50, CellTiter-Glo” value worked out at 0.176 µM.
In the case of `CCCCCOC(=O)Nc1nc(=O)n([C@@H]2O[C@H](C)[C@@H](O)[C@H]2O)cc1F` [Capecitabine], the “EC50, CellTiter-Glo” value in test [10] was found to be 5.97 µM.
In the case of `C[C@@H]1C[C@H]2[C@@H]3CCC4=CC(=O)C=C[C@]4(C)[C@@]3(F)[C@@H](O)C[C@]2(C)[C@@]1(O)C(=O)CO` [Dexamethasone], the “EC50, CellTiter-Glo” value is 0.00749 µM in test [5] and 0.379 µM in test [8].
`Cc1c(C(=O)Nc2ccc(N3C[C@@H](C)O[C@@H](C)C3)nc2)cccc1-c1ccc(OC(F)(F)F)cc1` [Erismodegib]: the “EC50, CellTiter-Glo” value in test [1] came to 0.722 µM; in [3] it was 6.61 µM; in test [9], 0.041 µM; in test [10] it was 0.636 µM.
On to `CC(C)C(=O)Nc1ccc([N+](=O)[O-])c(C(F)(F)F)c1` [Flutamide], for which the “EC50, CellTiter-Glo” value in test [9] is above 10 µM.
As for `NC(=O)NO` [Hydroxyurea], the “EC50, CellTiter-Glo” value in test [2] worked out at 14 µM; in [9], 1.29 µM. Further, in test [11], the “EC50, CellTox Green” value was found to be 16.3 µM.
`NC(=O)NO` [Hydroxyurea] (100000 nM): the normalised response in test [12] worked out at 97.2%; in [13] it was 77.4%; in [14], 102%; in [15], 104%; in [16] it was 104%; in [17], 97%. Moreover, the normalised response in test [18] came to 101%; in [19] it was 96.9%; in test [20], 29%; in test [21], 110%; in [22], 95%; in test [23], 104%. Moreover, the normalised response in test [24] is 102%; in test [25], 103%; in [26] it was 106%; in test [27], 98.5%; in [28] it was 96.4%.
On to `O=NN(CCCl)C(=O)NC1CCCCC1` [Lomustine] (10000 nM), for which the normalised response was determined as 97.2% in test [12]; 104% in test [13]; 101% in [14]; 96.2% in test [15]; 103% in test [16]; 99.5% in test [17]. For the same compound, the normalised response worked out at 99.9% in test [18]; 98.5% in test [19]; 110% in test [20]; 101% in test [21]; 99% in [22]; 106% in test [23]. Moreover, the normalised response in [24] was found to be 99.7%; in test [25], 105%; in test [26], 107%; in test [27], 95.9%; in test [28] it was 104%.
